Test results as given in patent US20150197497A1, “SELECTIVE INHIBITORS OF HISTONE DEACETYLASE ISOFORM 6 AND METHODS THEREOF” (DANA-FARBER CANCER INSTITUTE, INC., priority 2011, published 2015).

Columns and labels:
HDAC3 = target: T1, HDAC3 (Homo sapiens, UniProt O15379); assay: In vitro HDAC enzyme inhibition assay, HDAC3; assay type: biochemical; conditions: for HDAC3/HDAC6 in vitro selectivity: ratio of IC50 for HDAC3 relative to that of HDAC6; for IC50: recombinant full-length HDAC3, substrate MAZ1600 9 μM
T1 construct: Recombinant, full-length HDAC protein (BPS Biosciences) was incubated with fluorophore conjugated substrate; purchased BPS Biosciences
T1 sequence (O15379 whole entry): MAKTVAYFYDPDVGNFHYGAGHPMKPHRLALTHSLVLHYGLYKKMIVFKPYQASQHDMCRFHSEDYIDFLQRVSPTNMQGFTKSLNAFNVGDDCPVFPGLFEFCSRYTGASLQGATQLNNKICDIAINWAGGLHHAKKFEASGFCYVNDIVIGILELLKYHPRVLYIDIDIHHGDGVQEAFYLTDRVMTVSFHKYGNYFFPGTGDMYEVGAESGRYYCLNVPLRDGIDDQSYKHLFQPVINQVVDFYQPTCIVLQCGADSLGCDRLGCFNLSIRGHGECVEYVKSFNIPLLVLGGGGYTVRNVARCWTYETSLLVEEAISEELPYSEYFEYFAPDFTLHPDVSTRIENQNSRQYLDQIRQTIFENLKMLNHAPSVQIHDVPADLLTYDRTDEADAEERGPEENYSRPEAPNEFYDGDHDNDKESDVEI
T1 sequence (Q9Y618 395-489 partner limits assumed): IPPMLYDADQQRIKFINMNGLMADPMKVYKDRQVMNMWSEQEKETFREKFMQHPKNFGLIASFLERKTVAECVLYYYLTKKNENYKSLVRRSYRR
Protocol: (§1) In vitro Histone Deacetylase enzyme assays were performed using Class I (isoforms: HDAC1, HDAC2, HDAC3 and HDAC8), class IIa (isoforms: HDAC4, HDAC5, HDAC7 and HDAC9) and class IIb (isoform HDAC6).
(§2) HDAC activities were determined in vitro with an optimized homogenous assay performed in a 384-well plate. Recombinant, full-length HDAC protein (BPS Biosciences) was incubated with fluorophore conjugated substrate, MAZ1600 and MAZ1675, at Km=[S]. […] Reactions were performed in assay buffer (50 mM HEPES, 100 mM KCl, 0.001% Tween-20, 0.05% BSA, 200 μM tris(2-carboxyethyl)phosphine (TCEP), pH 7.4) and followed for fluorogenic release of 7-amino-4-methylcoumarin from substrate upon deacetylase and trypsin enzymatic activity. Fluorescence measurements were obtained every five minutes using a multilabel plate reader and plate-stacker (Envision; Perkin-Elmer). Each plate was analyzed by plate repeat, and the first derivative within the linear range was imported into analytical software (Spotfire DecisionSite and GraphPad Prism). Replicate experimental data from incubations with inhibitor were normalized to controls.

HDAC5 = target: T2, HDAC5 (Homo sapiens, UniProt Q9UQL6); assay: In vitro HDAC enzyme inhibition assay, HDAC5; assay type: biochemical; conditions: for HDAC5/HDAC6 in vitro selectivity: ratio of IC50 for HDAC5 relative to that of HDAC6; for IC50: recombinant full-length HDAC5, substrate MAZ1675 40 μM
T2 construct: Recombinant, full-length HDAC protein (BPS Biosciences) was incubated with fluorophore conjugated substrate; purchased BPS Biosciences
T2 sequence (Q9UQL6 whole entry): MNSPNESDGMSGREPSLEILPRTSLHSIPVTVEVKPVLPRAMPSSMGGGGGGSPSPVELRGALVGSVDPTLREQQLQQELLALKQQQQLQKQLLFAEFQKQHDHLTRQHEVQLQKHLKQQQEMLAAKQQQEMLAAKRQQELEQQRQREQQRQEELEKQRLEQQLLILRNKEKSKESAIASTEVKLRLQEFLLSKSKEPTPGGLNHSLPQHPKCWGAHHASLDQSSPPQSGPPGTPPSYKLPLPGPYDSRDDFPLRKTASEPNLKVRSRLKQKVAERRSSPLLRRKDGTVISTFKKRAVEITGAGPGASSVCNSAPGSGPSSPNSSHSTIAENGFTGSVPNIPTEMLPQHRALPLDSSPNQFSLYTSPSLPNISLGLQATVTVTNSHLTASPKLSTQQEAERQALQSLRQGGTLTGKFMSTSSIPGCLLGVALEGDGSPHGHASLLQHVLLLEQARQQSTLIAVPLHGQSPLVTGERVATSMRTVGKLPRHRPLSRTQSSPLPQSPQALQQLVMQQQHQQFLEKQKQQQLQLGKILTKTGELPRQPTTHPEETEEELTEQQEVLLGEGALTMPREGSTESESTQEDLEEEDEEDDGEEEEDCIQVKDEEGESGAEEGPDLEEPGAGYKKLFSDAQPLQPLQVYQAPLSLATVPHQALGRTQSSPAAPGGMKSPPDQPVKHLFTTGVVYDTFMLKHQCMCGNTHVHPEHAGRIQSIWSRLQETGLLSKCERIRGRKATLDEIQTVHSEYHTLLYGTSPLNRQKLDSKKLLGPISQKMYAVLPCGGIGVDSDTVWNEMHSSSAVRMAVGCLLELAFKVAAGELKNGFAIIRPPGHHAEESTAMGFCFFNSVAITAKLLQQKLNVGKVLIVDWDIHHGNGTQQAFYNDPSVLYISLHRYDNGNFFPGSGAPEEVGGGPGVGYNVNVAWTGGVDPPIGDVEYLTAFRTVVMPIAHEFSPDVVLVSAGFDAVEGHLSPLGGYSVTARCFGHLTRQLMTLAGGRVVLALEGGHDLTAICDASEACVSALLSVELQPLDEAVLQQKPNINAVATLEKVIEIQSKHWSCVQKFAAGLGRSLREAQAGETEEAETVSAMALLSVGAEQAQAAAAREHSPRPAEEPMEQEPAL
Protocol: as §1, §2

HDAC9 = target: T3, HDAC9 (Homo sapiens, UniProt Q9UKV0); assay: In vitro HDAC enzyme inhibition assay, HDAC9; assay type: biochemical; conditions: for HDAC9/HDAC6 in vitro selectivity: ratio of IC50 for HDAC9 relative to that of HDAC6; for IC50: recombinant full-length HDAC9, substrate MAZ1675 26 μM; for selectivity toward HDAC6 compared to HDAC9 (in words): tested in vitro
T3 construct: Recombinant, full-length HDAC protein (BPS Biosciences) was incubated with fluorophore conjugated substrate; purchased BPS Biosciences
T3 sequence (Q9UKV0 whole entry): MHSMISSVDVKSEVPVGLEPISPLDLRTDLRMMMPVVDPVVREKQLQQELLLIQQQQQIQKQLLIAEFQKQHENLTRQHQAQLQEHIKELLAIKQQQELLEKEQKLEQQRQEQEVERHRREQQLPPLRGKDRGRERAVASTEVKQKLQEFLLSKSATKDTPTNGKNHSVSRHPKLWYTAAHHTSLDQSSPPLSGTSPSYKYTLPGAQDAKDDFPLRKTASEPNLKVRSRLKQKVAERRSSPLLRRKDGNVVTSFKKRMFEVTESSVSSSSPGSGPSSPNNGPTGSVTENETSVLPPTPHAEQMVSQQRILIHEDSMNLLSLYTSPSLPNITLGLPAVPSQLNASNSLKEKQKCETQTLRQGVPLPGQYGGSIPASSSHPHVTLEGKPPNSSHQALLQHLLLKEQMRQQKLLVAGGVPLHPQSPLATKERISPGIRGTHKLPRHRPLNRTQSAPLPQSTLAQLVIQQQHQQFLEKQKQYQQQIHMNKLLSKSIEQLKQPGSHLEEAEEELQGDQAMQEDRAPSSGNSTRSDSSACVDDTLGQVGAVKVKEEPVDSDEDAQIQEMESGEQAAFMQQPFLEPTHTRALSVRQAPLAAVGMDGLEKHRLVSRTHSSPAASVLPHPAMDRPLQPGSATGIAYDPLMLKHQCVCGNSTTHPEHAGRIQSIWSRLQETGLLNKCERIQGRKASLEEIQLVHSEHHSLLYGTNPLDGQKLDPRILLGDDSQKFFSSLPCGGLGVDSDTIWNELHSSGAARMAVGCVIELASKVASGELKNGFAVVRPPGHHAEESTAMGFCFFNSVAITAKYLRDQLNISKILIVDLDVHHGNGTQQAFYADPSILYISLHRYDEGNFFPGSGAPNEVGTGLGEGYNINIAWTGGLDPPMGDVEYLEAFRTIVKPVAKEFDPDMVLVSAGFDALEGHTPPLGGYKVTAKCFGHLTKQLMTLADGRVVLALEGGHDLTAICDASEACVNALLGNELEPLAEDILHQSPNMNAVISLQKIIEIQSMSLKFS
Protocol: as §1, §2

acetylated tubulin = assay: High-content image analysis of induction of acetylated tubulin in A549 cells; conditions: for levels of acetylated tubulin, dose response (in words) / AcHistone/AcTubulin in cell selectivity toward HDAC6: A549 cells; for levels of acetylated tubulin, dose response (in words): FIG. 11; for EC50: Homo sapiens, A549, 8 h, read-out: EC50 for half-maximal induction of acetylated tubulin (AcTubulin); for AcHistone/AcTubulin in cell selectivity toward HDAC6: ratio of EC50 acetylated histone to EC50 acetylated tubulin
Protocol: Cells were treated with each test HDACi compound with an automated pin transfer instrument (Janus, Perkin Elmer) and incubated for 8 hours. […] Fixation solution was aspirated and 90 μL of washing solution (0.1% Triton X-100 in PBS) was added prior to 10 minute incubation at 4° C. Washing solution was aspirated and cells were incubated at 4° C. for about 1 hour in blocking solution (0.1% Triton X-100+2% BSA in PBS). Washing solution was aspirated, and cells were incubated for about 1 hour at 4° C. in primary antibody for acetylated-tubulin (Sigma T7451) and acetylated-histone (Cell Signaling #9441L) at a 1:1000 dilution in blocking solution. Primary antibody solution was aspirated, and cells were washed three times in 90 μL of washing solution. […] Secondary antibody and nuclear staining solution was aspirated and cells were washed three times in 90 μL of washing solution. After the third wash, 50 μL of PBS was added to each well. Image acquisition was done on a high content imaging microscope (ImageXpress Micro, Molecular Devices), and image analysis (MetaXpress, Molecular Devices) was performed to obtain average acetylated-tubulin and acetylated-histone signal per cell based on treatment. Replicate experimental data from incubations with inhibitor were normalized to DMSO controls.

HDAC8 = target: T4, HDAC8 (Homo sapiens, UniProt Q9BY41); assay: In vitro HDAC enzyme inhibition assay, HDAC8; assay type: biochemical; conditions: for HDAC8/HDAC6 in vitro selectivity: ratio of IC50 for HDAC8 relative to that of HDAC6; for IC50: recombinant full-length HDAC8, substrate MAZ1675 282 μM
T4 construct: Recombinant, full-length HDAC protein (BPS Biosciences) was incubated with fluorophore conjugated substrate; purchased BPS Biosciences
T4 sequence (Q9BY41 1-377): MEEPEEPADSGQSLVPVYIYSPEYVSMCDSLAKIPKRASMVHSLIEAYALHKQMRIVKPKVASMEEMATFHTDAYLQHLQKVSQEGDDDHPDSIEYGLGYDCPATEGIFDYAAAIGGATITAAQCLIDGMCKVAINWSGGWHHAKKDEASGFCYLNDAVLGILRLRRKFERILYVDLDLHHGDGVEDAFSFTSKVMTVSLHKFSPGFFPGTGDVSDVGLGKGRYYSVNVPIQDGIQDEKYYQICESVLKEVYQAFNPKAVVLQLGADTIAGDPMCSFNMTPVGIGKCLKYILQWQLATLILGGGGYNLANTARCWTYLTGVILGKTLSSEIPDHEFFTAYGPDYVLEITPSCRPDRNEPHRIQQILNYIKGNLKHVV
Protocol: as §1, §2

HDAC1 = target: T5, HDAC1 (Homo sapiens, UniProt Q13547); assay: In vitro HDAC enzyme inhibition assay, HDAC1; assay type: biochemical; conditions: for HDAC1/HDAC6 in vitro selectivity: ratio of IC50 for HDAC1 relative to that of HDAC6; for IC50: recombinant full-length HDAC1, substrate MAZ1600 21 μM
T5 construct: Recombinant, full-length HDAC protein (BPS Biosciences) was incubated with fluorophore conjugated substrate; purchased BPS Biosciences
T5 sequence (Q13547 whole entry): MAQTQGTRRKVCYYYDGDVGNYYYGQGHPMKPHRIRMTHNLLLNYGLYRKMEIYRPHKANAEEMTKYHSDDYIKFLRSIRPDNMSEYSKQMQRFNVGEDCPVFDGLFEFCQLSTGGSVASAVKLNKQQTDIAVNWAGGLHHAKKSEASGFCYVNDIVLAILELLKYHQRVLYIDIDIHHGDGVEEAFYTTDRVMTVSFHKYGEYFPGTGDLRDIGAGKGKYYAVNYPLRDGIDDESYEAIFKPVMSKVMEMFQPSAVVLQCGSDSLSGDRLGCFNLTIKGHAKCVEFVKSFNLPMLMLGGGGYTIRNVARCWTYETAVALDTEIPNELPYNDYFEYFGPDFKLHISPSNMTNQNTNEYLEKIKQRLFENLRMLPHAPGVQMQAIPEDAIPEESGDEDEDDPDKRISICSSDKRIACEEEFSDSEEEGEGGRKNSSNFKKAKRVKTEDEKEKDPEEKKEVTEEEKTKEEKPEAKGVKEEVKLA
Protocol: as §1, §2

Row | SMILES | HDAC3/HDAC6 in vitro selectivity (HDAC3) | IC50 (HDAC3) | HDAC5/HDAC6 in vitro selectivity (HDAC5) | IC50 (HDAC5) | HDAC9/HDAC6 in vitro selectivity (HDAC9) | IC50 (HDAC9) | EC50 (acetylated tubulin) | HDAC8/HDAC6 in vitro selectivity (HDAC8) | IC50 (HDAC8) | HDAC1/HDAC6 in vitro selectivity (HDAC1) | IC50 (HDAC1) | levels of acetylated tubulin, dose response (in words) (acetylated tubulin) | AcHistone/AcTubulin in cell selectivity toward HDAC6 (acetylated tubulin) | selectivity toward HDAC6 compared to HDAC9 (in words) (HDAC9)
1 | O=C(NO)c1ccc(Cn2cnc3ccccc32)cc1 [A7] | 4791 | 469 nM | 9794 | 958 nM | 16631 | 1630 nM | 159 nM | 6573 | 643 nM | 2695 | 264 nM |  | 1.459 | 
2 | Cc1ccc2c(c1)ncn2Cc1ccc(C(=O)NO)cc1 [A8, N-hydroxy-4-((5-methyl-1H-benzo[d]imidazol-1-yl)methyl)benzamide] | 1596 | 608 nM | 3687 | 1400 nM | 5975 | 2280 nM | 105 nM | 2847 | 1080 nM | 688 | 262 nM |  | 0.7591 | 
3 | O=C(NO)c1ccc(Cn2cnc3cc(F)ccc32)cc1 [A9, 4-((5-fluoro-1H-benzo[d]imidazol-1-yl)methyl)-N-hydroxybenzamide] | 9140 | 606 nM | 15350 | 1020 nM | 32978 | 2190 nM | 132 nM | 12348 | 819 nM | 2812 | 186 nM |  | 0.4765 | exceptionally high selectivity (Inhibitors with in vitro selectivity values for HDAC6 of at least 30,000 are considered to have exceptionally high selectivity toward HDAC6)
4 | O=C(NO)c1ccc(Cn2cnc3cc(Cl)ccc32)cc1 [A10, 4-((5-chloro-1H-benzo[d]imidazol-1-yl)methyl)-N-hydroxybenzamide] | 3046 | 210 nM | 9686 | 668 nM | 17278 | 1190 nM | 188 nM | 7524 | 519 nM | 1399 | 96.5 nM |  | 4.787 | 
5 | O=C(NO)c1ccc(Cn2cnc3cc(Br)ccc32)cc1 [A11, 4-((5-bromo-1H-benzo[d]imidazol-1-yl)methyl)-N-hydroxybenzamide] | 3936 | 65.6 nM | 25649 | 427 nM | 61100 | 1020 nM | 174 nM | 18285 | 305 nM | 1725 | 28.7 nM |  | 11.31 | exceptionally high selectivity (Inhibitors with in vitro selectivity values for HDAC6 of at least 30,000 are considered to have exceptionally high selectivity toward HDAC6)
6 | COc1ccc2c(c1)ncn2Cc1ccc(C(=O)NO)cc1 [A12, N-hydroxy-4-((5-methoxy-1H-benzo[d]imidazol-1-yl)methyl)benzamide] | 2293 | 497 nM | 7819 | 1700 nM | 10933 | 2370 nM | 221 nM | 6543 | 1420 nM | 1378 | 299 nM |  | 0.4738 | 

Second part, led by results:

Row | HDAC3/HDAC6 in vitro selectivity (HDAC3) | IC50 (HDAC3) | HDAC5/HDAC6 in vitro selectivity (HDAC5) | IC50 (HDAC5) | HDAC9/HDAC6 in vitro selectivity (HDAC9) | IC50 (HDAC9) | EC50 (acetylated tubulin) | HDAC8/HDAC6 in vitro selectivity (HDAC8) | IC50 (HDAC8) | HDAC1/HDAC6 in vitro selectivity (HDAC1) | IC50 (HDAC1) | SMILES | levels of acetylated tubulin, dose response (in words) (acetylated tubulin) | AcHistone/AcTubulin in cell selectivity toward HDAC6 (acetylated tubulin) | selectivity toward HDAC6 compared to HDAC9 (in words) (HDAC9)
7 | 3791 | 1790 nM | 953 | 450 nM | 2167 | 1020 nM | 452 nM | 3764 | 1780 nM | 1444 | 682 nM | O=C(NO)c1ccc(Cn2c(C(F)(F)F)nc3ccccc32)cc1 [A1, N-hydroxy-4-((2-(trifluoromethyl)-1H-benzo[d]imidazol-1-yl)methyl)benzamide] | dose-dependent increase | 14.01 | 
8 | 3718 | 1140 nM | 537 | 164 nM | 1942 | 594 nM | 100 nM | 4364 | 1330 nM | 808 | 247 nM | Cc1ccc2c(c1)nc(C(F)(F)F)n2Cc1ccc(C(=O)NO)cc1 [A2, N-hydroxy-4-((5-methyl-2-(trifluoromethyl)-1H-benzo[d]imidazol-1-yl)methyl)benzamide] |  | 2.411 | 
9 | 3126 | 1790 nM | 486 | 279 nM | 2127 | 1220 nM | 77.3 nM | 2540 | 1460 nM | 812 | 466 nM | O=C(NO)c1ccc(Cn2c(C(F)(F)F)nc3cc(F)ccc32)cc1 [A3, 4-((5-fluoro-2-(trifluoromethyl)-1H-benzo[d]imidazol-1-yl)methyl)-N-hydroxybenzamide] |  | 7.664 | 
10 | 1096 | 1270 nM | 246 | 285 nM | 943 | 1090 nM | 275 nM | 1240 | 1440 nM | 343 | 398 nM | O=C(NO)c1ccc(Cn2c(C(F)(F)F)nc3cc(Cl)ccc32)cc1 [A4, 4-((5-chloro-2-(trifluoromethyl)-1H-benzo[d]imidazol-1-yl)methyl)-N-hydroxybenzamide] | dose-dependent increase | 54.11 | 
11 | 2529 | 784 nM | 476 | 148 nM | 2420 | 750 nM | 190 nM | 3501 | 1080 nM | 541 | 167 nM | O=C(NO)c1ccc(Cn2c(C(F)(F)F)nc3cc(Br)ccc32)cc1 [A5, 4-((5-bromo-2-(trifluoromethyl)-1H-benzo[d]imidazol-l-yl)methyl)-N-hydroxybenzamide] |  | 10.17 | 
12 | 2067 | 810 nM | 637 | 250 nM | 1871 | 733 nM | 212 nM | 3927 | 1540 nM | 629 | 246 nM | COc1ccc2c(c1)nc(C(F)(F)F)n2Cc1ccc(C(=O)NO)cc1 [A6, N-hydroxy-4-((5-methoxy-2-(trifluoromethyl)-1H-benzo[d]imidazol-1-yl)methyl)benzamide] |  | 12.2081 | 
